Reference: patent US20220268782A1, “METHODS FOR PREDICTING AND TREATING CARDIAC DYSFUNCTION” (INSERM (INSTITUT NATIONAL DE LA SANTÉ EAT DE LA RECHERCHE …, priority 2019, published 2022)

Experiments:
C2C12 myoblasts = assay: PA catabolism and Nrf2-antioxidant pathway in C2C12 cells (Pah, tyrosine, 2-SC); assay type: cell-based; settings: data not shown
Experimental: Cells were washed briefly with ice-cold 1×PBS, scraped in 400 μL T-PER lysis buffer (ThermoFisher) supplemented with 0.1 mM phenylmethylsulphonyl fluoride (PMSF) and protease/phosphatase inhibitor cocktail tablet (ThermoFisher). Pulverised tissue samples (20-30 mg) were lysed in the same buffer accelerated by sonication and passing through a 21 G needle. To pellet any debris, lysates were centrifuged at 10,000 g for 10 minutes at 4° C., with the supernatant transferred to fresh tubes. Protein concentrations were determined with Bradford assay (Biorad) and lysates were diluted to equal concentration with lysis buffer. […]
C2C12 (ATCC® CRL-1772™) myoblasts maintained in DMEM supplemented with L-glutamine (2 mM), penicillin/streptomycin (1%) and 5% fetal bovine serum (FBS) were seeded either at a density of 5×10^4 cells (<50%) per well in 24-well plates or 10^4 cells in 4-well chamber slides. […] Cells were analysed for oxidative stress with MitoSOX™ (mitochondrial superoxide; 5 μM, ThermoFisher Scientific), CellROX™ (cytosolic superoxide; 5 μM, ThermoFisher Scientific), gene or protein expression, or various metabolites (see below).
Levels of reduced glutathione (GSH; ThermoFisher), phenylalanine (BioVision) and tyrosine (BioVision) were determined from cells or plasma, with respective agents/kits following the manufacturer's recommendations. […]

[1] = system: primary adult rat cardiomyocytes; assay: Immunoblot of p21 in primary adult rat cardiomyocytes; assay type: cell-based; settings: FIG. 1g
Experimental: Male Spargue Dawley rats (9 weeks, 300-350 g) were anesthetised with ketamine and xylazine (100 and 10 mg/kg, respectively) with heparin added (100 UI/kg). Hearts were excised and retrogradely perfused with an oxygenated ([…]) perfusion buffer consisting of NaCl 113 mM, KCl 4.7 mM, KH2PO4 0.6 mM, Na2HPO4 0.6 mM, MgSO4-7H2O 1.2 mM, NaHCO3 12 mM, KHCO3 10 mM, HEPES 10 mM, Taurine 30 mM, phenol red 0.032 mM, D-glucose 5.5 mM, 2,3-butanedionemonoxime 10 mM, pH 7.4) for 2 minutes to wash out the blood from the coronary arteries. Then hearts were perfused with a digestion buffer (perfusion buffer supplemented with 0.1 mg/mL liberase, 0.14 mg/mL trypsine-EDTA and 12.5 μM Ca^2+) for 10-12 minutes. Hearts were then placed in a stopping buffer (perfusion buffer supplemented with 10% NBCS and 12.5 μM Ca^2+). Atria and right ventricles were removed. Left ventricles were dissected into small fragments, then subjected to successive aspirations-reflux. Digested ventricles were filtered through a 250 μm cell strainer. […]
Cells were washed briefly with ice-cold 1×PBS, scraped in 400 μL T-PER lysis buffer (ThermoFisher) supplemented with 0.1 mM phenylmethylsulphonyl fluoride (PMSF) and protease/phosphatase inhibitor cocktail tablet (ThermoFisher). […] Protein concentrations were determined with Bradford assay (Biorad) and lysates were diluted to equal concentration with lysis buffer. […]

Structure (SMILES) | succination-sensitive Nrf2-antioxidant pathway (C2C12 myoblasts; BH4-dependent succination) | PA catabolism: cellular levels of Pah, tyrosine and 2-succinylcysteine (2-SC) (C2C12 myoblasts) | PA-induced p21 protein ([1]; PA 5 mM + BH4 10 μM) | p21 protein ([1]; PA 5 mM, 4-hour incubation)
CC(O)C(O)C1CNc2nc(N)[nH]c(=O)c2N1 (stereo not shown) [BH4, 2-amino-6-(1,2-dihydroxypropyl)-5,6,7,8-tetrahydro-3H-pteridin-4-one] | activation | increased | rescue | –
N[C@@H](Cc1ccccc1)C(=O)O [PA, (S)-2-Amino-3-phenylpropanoic acid] | – | – | – | selective induction
